Laboratory results as given in patent publication US7414047B2, “Piperazinyl and diazapanyl benzamides and benzthioamides” (Janssen Pharmaceutica N.V., priority 2002, dated 2008).
Counter-ions that a name gives are not always drawn.

Biological target: T1, human histamine H3 receptor (Homo sapiens, UniProt Q9Y5N1)
T1 construct: One microgram of supercoiled H3 receptor cDNA was added to the cells and mixed; expressed in transfected cells; membranes prepared from cell pellets
Experiment: {3H}-N-methylhistamine binding
Experimental: Transfection of Cells with Human Histamine Receptor
A 10 cm tissue culture dish with a confluent monolayer of SK-N-MC cells was split two days prior to transfection. Using sterile technique the media was removed and the cells were detached from the dish by the addition of trypsin. One fifth of the cells were then placed onto a new 10 cm dish. Cells were grown in a 37° C. incubator with 5% CO2 in Minimal Essential Media Eagle with 10%. Fetal Bovine Serum. After two days cells were approximately 80% confluent. These were removed from the dish with trypsin and pelleted in a clinical centrifuge. The pellet was then re-suspended in 400 μL complete media and transferred to an electroporation cuvette with a 0.4 cm gap between the electrodes. One microgram of supercoiled H3 receptor cDNA was added to the cells and mixed. The voltage for the electroporation was set at 0.25 kV, the capacitance was set at 960 μF. After electroporation the cells were diluted into 10 mL complete media and plated onto four 10 cm dishes. Because of the variability in the efficiency of electroporation, four different concentrations of cells were plated. The ratios used were; 1:20, 1:10, 1:5, with the remainder of the cells being added to the fourth dish. […] After 10 days dishes were analyzed for surviving colonies of cells. Dishes with well-isolated colonies were used. Cells from individual colonies were isolated and tested. SK-N-MC cells were used because they give efficient coupling for inhibition of adenylate cyclase. The clones that gave the most robust inhibition of adenylate cyclase in response to histamine were used for further study.
{^3H}-N-methylhistamine Binding
Cell pellets from histamine H3 receptor-expressing SK-N-MC cells were homogenized in 20 mM TrisHCl/0.5 mM EDTA. Supernatants from an 800 g spin were collected, recentrifuged at 30,000 g for 30 min. Pellets were re-homogenized in 50 mM Tris/5 mM EDTA (pH 7.4). […] Filters were dried, added to 4 mL scintillation cocktail and then counted on a liquid scintillation counter. Non-specific binding was defined with 10 μM histamine.

T1 sequence (Q9Y5N1 whole entry): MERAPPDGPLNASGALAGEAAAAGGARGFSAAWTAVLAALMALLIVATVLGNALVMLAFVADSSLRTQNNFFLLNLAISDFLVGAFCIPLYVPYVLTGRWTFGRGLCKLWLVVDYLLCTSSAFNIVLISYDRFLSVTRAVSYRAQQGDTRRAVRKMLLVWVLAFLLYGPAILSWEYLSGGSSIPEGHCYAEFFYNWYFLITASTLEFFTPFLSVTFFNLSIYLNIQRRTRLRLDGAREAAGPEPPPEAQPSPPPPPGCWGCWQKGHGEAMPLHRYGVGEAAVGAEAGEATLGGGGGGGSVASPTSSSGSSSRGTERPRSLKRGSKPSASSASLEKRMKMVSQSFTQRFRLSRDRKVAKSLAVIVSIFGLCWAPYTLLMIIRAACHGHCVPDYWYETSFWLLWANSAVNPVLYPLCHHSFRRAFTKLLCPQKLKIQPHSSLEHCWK

SMILES	Ki [nM]
CC(C)N1CCN(C(=O)c2ccc(CNc3ccc(C(F)(F)F)nc3)cc2)CC1 [Example 52, (4-Isopropryl-piperazin-1-yl)-{4-{(6-trifluoromethyl-pyridin-3-ylamino)-methyl}-phenyl}-methanone dihydrochloride]	14
CC(C)N1CCN(C(=O)c2ccc(CNc3ccc(Cl)cn3)cc2)CC1 [Example 53, {4-{(5-Chloro-pyridin-2-ylamino)-methyl}-phenyl}-4-isopropyl-piperazin-1-yl)-methanone dihydrochloride]	30
CN1CCN(C(=O)c2ccc(CN3CCCCC3)cc2)CC1 [Example 54, (4-Methyl-piperazin-1-yl)-(4-piperidin-1-ylmethyl-phenyl)-methanone dihydrochloride]	24
CC(C)N1CCN(C(=O)c2ccc(CNc3ccc(C(F)(F)F)cn3)cc2)CC1 [Example 55, (4-Isopropyl-piperazin-1-yl)-{4-{(5-trifluoromethyl-pyridin-2-ylamino)-methyl}-phenyl}-methanone dihydrochloride]	49
CC(C)N1CCN(C(=O)c2ccc(CN3CCCC(C(F)(F)F)C3)cc2)CC1 (stereo not drawn) [Example 56, (4-Isopropyl-piperazin-1-yl)-{4-(3-trifluoromethyl-piperidin-1-ylmethyl)-phenyl}-methanone dihydrochloride]	1
CCN(CC)Cc1ccc(C(=O)N2CCN(C(C)C)CC2)cc1 [Example 57, (4-Diethylaminomethyl-phenyl)-(4-isopropyl-piperazin-1-yl)-methanone dihydrochloride]	6
CC(C)N1CCN(C(=O)c2ccc(CNCc3ccccc3)cc2)CC1 [Example 58, {4-(Benzylamino-methyl)-phenyl}-(4-isopropyl-piperazin-1-yl)-methanone dihydrochloride]	3
CC(C)N1CCN(C(=O)c2ccc(CNc3ccccc3)cc2)CC1 [Example 59, (4-Isopropyl-piperazin-1-yl)-(4-phenylaminomethyl-phenyl)-methanone dihydrochloride]	23
CC(C)N1CCN(C(=O)c2ccc(CN3CCCCCC3)cc2)CC1 [Example 60, (4-Azepan-1-ylmethyl-phenyl)-(4-isopropyl-piperazin-1-yl)-methanone dihydrochloride]	1
CC(C)N1CCN(C(=O)c2ccc(CN3CCCC3)cc2)CC1 [Example 61, (4-Isopropyl-piperazin-1-yl)-(4-pyrrolidin-1-ylmethyl-phenyl)-methanone dihydrochloride]	1
CC(C)N1CCN(C(=O)c2ccc(CN(C)C)cc2)CC1 [Example 62, (4-Dimethylaminomethyl-phenyl)-(4-isopropyl-piperazin-1-yl)-methanone dihydrochloride]	5
O=C(c1ccc(CN2CCCCC2)cc1)N1CCN(C2CCCCC2)CC1 [Example 66, (4-Cyclohexyl-piperazin-1-yl)-(4-piperidin-1-ylmethyl-phenyl)-methanone]	1
CC(C)N1CCN(C(=O)c2ccc(CN3CCSCC3)cc2)CC1 [Example 67, (4-Isopropyl-piperazin-1-yl)-(4-thiomorpholin-4-ylmethyl-phenyl)-methanone]	2
CCCN(CCOC)Cc1ccc(C(=O)N2CCN(C(C)C)CC2)cc1 [Example 68, (4-Isopropyl-piperazin-1-yl)-(4-{[(2-methoxy-ethyl)-propyl-amino]-methyl}-phenyl)-methanone]	2
CCN(CCOC)Cc1ccc(C(=O)N2CCN(C(C)C)CC2)cc1 [Example 69, (4-{[Ethyl-(2-methoxy-ethyl)-amino]-methyl}-phenyl)-(4-isopropyl-piperazin-1-yl)-methanone]	3
COCCNCc1ccc(C(=O)N2CCN(C(C)C)CC2)cc1 [Example 70, (4-Isopropyl-piperazin-1-yl)-{4-[(2-methoxy-ethylamino)-methyl]-phenyl}-methanone]	2
CC(C)N1CCN(C(=O)c2ccc(CNc3ccccn3)cc2)CC1 [Example 71, (4-Isopropyl-piperazin-1-yl)-[4-(pyridin-2-ylaminomethyl)-phenyl]-methanone]	4
COCC(C)NCc1ccc(C(=O)N2CCN(C(C)C)CC2)cc1 (stereo not drawn) [Example 72, (4-Isopropyl-piperazin-1-yl)-{4-[(2-methoxy-1-methyl-ethylamino)-methyl]-phenyl}-methanone]	3
